Test [1] has as its system E. coli ATCC 25922. Kind of test: Checkerboard synergy with erythromycin. In kind it is cell-based, Escherichia coli. The following applies: Escherichia coli. As to the method: The combined effect of compound 1 and CTX for E. coli SA/2, VAN for E. faecalis B3/101, COL for E. coli 2252, erythromycin for E. coli ATCC 25922, and OXA for S. aureus 66/1 was evaluated by the checkerboard method. […] The interaction between compound 1 and erythromycin was assessed for E. coli ATCC 25922. Gram-negative bacteria are intrinsically resistant to erythromycin, a macrolide that inhibits protein synthesis, and cannot penetrate the outer membrane of Gram-negative bacteria, which is impermeable to hydrophobic antibiotics. Ascertain ceragenins have been previously described to be able to enhance the efficacy of such antibiotics, this possibility was investigated for compound 1 and a FICI of 0.6 was obtained.

The next test has as its system C. albicans ATCC 10231. Kind of test: Mitochondrial dehydrogenases activity, MTT reduction assay. Type of test: cell-based, Candida albicans. Particulars: 8 μg/mL, 2 h. As to the method:
In order to determine whether compound 1 could also affect mitochondrial function, MTT reduction assay was performed. In this assay, tetrazolium salts are reduced to purple formazan derivatives by mitochondrial dehydrogenases, which can be measured spectrophotometrically and reported to mitochondrial activity and, indirectly, to cell viability. In this assay, cells were exposed to the test compounds for 2 h ([FIG. 11]). […] An increase in reactive oxygen species (ROS) has been linked to azoles activity: even though their primary mode of action is the inhibition of ergosterol synthesis, they also induce accumulation of ROS, which enhances their antifungal activity and translates into an increase in mitochondrial activity at inhibitory concentrations. […] Mitochondrial dehydrogenase activity was evaluated by the MTT assay, as previously described, with some modifications. Cell suspensions of C. albicans ATCC 10231 were prepared in the same manner as described above and, after overnight incubation at 36° C., were centrifuged at 3500 rpm for 15 min, the supernatant was removed, and the cells were carefully resuspended in 2 mL of RPMI. Test conditions and controls were the same as described above, but the time of exposure to the test compounds was 2 h. After the exposure time, cell suspensions were centrifuged at 3500 rpm for 10 min, the supernatant was removed, and 500 μL of MTT solution (0.5 mg/mL in RPMI, at 35° C.) (Thiazolyl Blue Tetrazolium Bromide, Alfa Aesar, Ward Hill, MA, USA) were added. After a 1 h incubation at 35° C., the insoluble formazan product resulting from the conversion of MTT by mitochondrial dehydrogenases of metabolically active cells was solubilized with 300 μL of DMSO. 100 μL of each sample were transferred in duplicate to a microtiter plate and the extent of the reduction of MTT to formazan was quantified by measuring the absorbance at 570 nm. Three independent assays were performed in duplicate, and the results are expressed as percentage of MTT reduction, using the untreated cells as control.
A general note: Tetrazolium dyes change colour on reduction, which living cells bring about.

Test [2] deals with Escherichia coli ATCC 25922. Kind of test: Antibacterial MIC/MBC (broth microdilution). Type of test: cell-based. The following applies: Escherichia coli ATCC 25922. An excerpt:
Twelve reference bacterial strains and nine MDR clinically relevant bacterial strains were used in this study. Gram-negative bacteria comprised reference strains E. coli ATCC 25922, K. pneumoniae ATCC 13883, Salmonella enterica serovar Typhimurium CECT 443, P. aeruginosa ATCC 27853, A. baumannii ATCC 19606, C. jejuni ATCC 33560 (ATCC—American Type Culture Collection; CECT—Colección Espanola de Cultivos Tipo); clinical isolates E. coli SA/2, an extended-spectrum β-lactamase (ESBL)-producing strain and P. aeruginosa 33b, a pan-drug-resistant isolate; and animal isolates C. jejuni P5/4, a ciprofloxacin-resistant strain, C. jejuni 4432, C. jejuni 4433, C. jejuni 4448, and E. coli 2252, a COL-resistant strain [42]. Gram-positive strains included S. aureus ATCC 29213, E. faecalis ATCC 29212, S. pyogenes ATCC 19615, and environmental isolates methicillin-resistant S. aureus (MRSA) 66/1 [43], and VAN-resistant enterococci (VRE) E. faecalis B3/101 [44]. Gram-negative fish pathogens Yersinia ruckeri ATCC 29473, Listonella anguillarum ATCC 1924, and Tenacibaculum maritimum ATCC 43397 were also included.
Strains were kept in Trypto-Casein Soy agar (TSA—Biokar Diagnostics, Allone, Beauvais, France) slants and, before each assay, were sub-cultured in Mueller-Hinton agar (MHA—Biokar Diagnostics, Allone, Beauvais, France). Y. ruckeri ATCC 29473 and L. anguillarum ATCC 1924 were kept in Nutrient Agar (Condalab, Madrid, Spain) and T. maritimum ATCC 43397 was kept in TMM agar (Condalab, Madrid, Spain), and were sub-cultured in the respective culture media before each assay. For S. pyogenes ATCC 19615, CAMHB was supplemented with 3.75% lysed horse blood (LBH—Oxoid, Basingstoke, England), whereas for C. jejuni it was supplemented with 2.5% LHB. Colony-forming unit counts of the inoculum were conducted to determine the initial inoculum size (which should be approximately 5×10^5 CFU/mL). Sterility and growth controls were included in each assay. The 96-well U-shaped untreated polystyrene microtiter plates were incubated for 20 h at 37 degrees C. (42 degrees C. for C. jejuni, in a microaerophilic atmosphere) and the minimal inhibitory concentration (MIC) was determined as the lowest concentration of compound that prevented visible growth. The minimal bactericidal concentration (MBC) was determined by spreading 100 μL of the content of the wells with no visible growth on MH plates. The MBC was determined as the lowest concentration of compound that killed 99.9% of the initial inoculum after overnight incubation at 37 degrees C. Two independent assays were performed for reference and MDR strains.
An initial screening of the antibacterial activity of the compounds was performed by the Kirby-Bauer disk diffusion method, as recommended by the Clinical and Laboratory Standards Institute (CLSI). Briefly, sterile 6 mm blank paper disks (Oxoid, Basingstoke, England) impregnated with 15 μg of each compound were placed on inoculated MH agar plates. A blank disk with dimethylsulfoxide (DMSO) was used as a negative control. MH inoculated plates were incubated for 18-20 h at 37 degrees C. At the end of incubation, the inhibition halos where measured. The MIC was used to determine the antibacterial activity of each compound, in accordance with the recommendations of the CLSI. Two-fold serial dilutions of the compounds were prepared in Mueller-Hinton Broth 2 (MHB2—Sigma-Aldrich, St. Louis, MO, USA) within the concentration range of 0.062-64 μg/mL. CTX ranging between 0.031-16 μg/mL was used as a control. Sterility and growth controls were included in each assay. Purity checks and colony counts of the inoculum suspensions were also performed in order to ensure that the final inoculum density closely approximates the intended number (5×10^5 CFU/mL). The MIC was determined as the lowest concentration of compound that inhibited growth of the bacteria. The MBC was assessed by spreading 10 μL of culture collected from wells showing no visible growth on MH agar plates. […]
(In general: In broth dilution the organism is exposed to a series of concentrations in liquid medium.)

The test system of test [3] is E. coli ATCC 25922. The test can be described thus: Membrane integrity, propidium iodide influx assay (SYTO 9/PI). Type of test: cell-based, Escherichia coli. The following applies: 4 μg/mL; 0, 1, 18 h. As to the method:
The influx of PI in E. coli ATCC 25922 treated with 2×MIC, MIC, and ½×MIC of compound 1 was evaluated using a commercial kit that includes fluorescent nucleic acid stains SYTO® 9 and PI. SYTO® 9 can enter cells with intact or damaged membranes, generally labeling both, whereas PI only penetrates cells with severe membrane lesions, causing a reduction in SYTO® 9 fluorescence when both dyes are present.
In these assays, COL and AMP were used as controls. COL is a polycationic antimicrobial peptide with a complex mode of action, that ultimately solubilizes the bacterial cell membrane. AMP is an aminopenicillin that inhibits cell wall synthesis by inhibiting penicillin-binding proteins. E. coli ATCC 25922 cells were treated with compound 1 and, at several time-points (0, 1, and 18 h), samples were taken, and SYTO® 9/PI ratio was determined ([FIG. 4]). The entrance of PI is reflected in a reduction of this ratio.
Briefly, E. coli ATCC 25922 colonies from overnight cultures in MHA were suspended in CAMHB to prepare an inoculum with a final concentration of approximately 5×10^5 CFU/mL. The tubes were incubated overnight at 36° C. in a water bath with shaking. Following this, the cell suspensions were centrifuged at 3500 rpm for 15 min, the supernatant was removed, the cells were carefully resuspended in fresh CAMHB and the suspension was adjusted to 0.5 McFarland. An aliquot of this suspension was then added to each tube of CAMHB alone (control) or CAMHB plus an appropriate amount of test compound. […] The tubes were incubated at 36 degrees C. in a water bath with shaking and, at pre-established time points (0, 1, and 18 h), […] aliquots were retrieved for further analysis. After the exposure time, cells were washed two times, resuspended in 0.85% NaCl, and 100 μL of each cell suspension was distributed in the wells of a microtiter plate, in triplicate. 100 μL of a mixture of 30 μM PI and 5 μM SYTO® 9 prepared in ultrapure water were added to each well, and the plates were incubated at room temperature, in the dark, for 15 min. The fluorescence intensity of the stained bacterial suspensions was determined using a microplate reader (Synergy HT, BioTek Instruments, Winooski, VT, USA) by two consecutive measurements with excitation wavelength 485 nm and emission wavelength 528 nm (SYTO® 9) or 590 nm (PI). Data were analyzed by subtracting background fluorescence from each sample, dividing the fluorescence intensity of SYTO® 9 by fluorescence intensity of PI, and the results are presented as a percentage of control. Three independent assays were performed in triplicate for each experimental condition.

For test [4], the system named is E. coli ATCC 25922. Kind of test: Enzymatic/metabolic activity, MTT assay. In kind it is cell-based, Escherichia coli. Particulars: 4 μg/mL; 0, 1, 18 h. As to the method: To determine whether compound 1 could also affect enzymatic activity, 2-(4,5-dimethyl-2-thiazolyl)-3,5-diphenyl-2H-tetrazolium bromide (MTT) assay was performed. This assay can also be used as an indirect measure of cellular viability, as tetrazolium salts are reduced to purple formazan by metabolically active cells. E. coli ATCC 25922 cells were treated with compound 1 and COL and AMP were used as controls, as described above. Measurements were made at 0, 1, and 18 h.
Enzymatic activity was evaluated by the MTT assay, as previously described, with some modifications. Cell suspensions of E. coli ATCC 25922 were prepared as described above, as well as test conditions and controls. At each time point (0, 1, and 18 h), 500 μL aliquots were collected, centrifuged at 3500 rpm for 10 min, the supernatant was removed, and 300 μL of MTT solution (0.5 mg/mL in CAMHB, at 36 degrees C.) (Thiazolyl Blue Tetrazolium Bromide, Alfa Aesar, Ward Hill, MA, USA) were added. After a 30 min incubation at 36° C., the insoluble formazan product resulting from the conversion of MTT by metabolically active cells was solubilized with 300 μL of DMSO. 100 μL of each sample were transferred in duplicate to the wells of a microtiter plate and the extent of the reduction of MTT to formazan was quantified by measuring the absorbance at 570 nm (Thermo Scientific Multiskan® EX, Thermo Fisher Scientific, Waltham, MA, USA). Three independent assays were performed in duplicate, and results are expressed as a percentage of untreated control.

Structures are written as SMILES. Converted amounts (≈) assume the structure as drawn.

As usually defined, the MIC is the lowest concentration that inhibits growth of the organism. In the case of `CC[C@H]1OC(=O)[C@H](C)[C@@H](O[C@H]2C[C@@](C)(OC)[C@@H](O)[C@H](C)O2)[C@H](C)[C@@H](O[C@@H]2O[C@H](C)C[C@H](N(C)C)[C@H]2O)[C@](C)(O)C[C@@H](C)C(=O)[C@H](C)[C@@H](O)[C@]1(C)O` [erythromycin, reference compound], the MIC was 16 µg/mL with E. coli ATCC 25922 [1] (ATCC25922, E. coli ATCC 25922, erythromycin alone) and 0.125 µg/mL with E. coli ATCC 25922 [1] (ATCC25922, E. coli ATCC 25922, with 16 μg/mL of compound 1 (½×MIC)).

For the molecule `C[C@@H](c1ncncc1F)[C@](O)(Cn1cncn1)c1ccc(F)cc1F` [VRC, voriconazole], the “mitochondrial activity (MTT reduction) vs untreated control” value in the test on C. albicans ATCC 10231 was “identical effect”.

Take `CC1(C)S[C@@H]2[C@H](NC(=O)[C@H](N)c3ccccc3)C(=O)N2[C@H]1C(=O)O` [AMP]: in test [2], the minimal inhibitory concentration (MIC) turned out to be 4 µg/mL (≈ 11.4 µM). Also, the “reduction in SYTO 9/PI ratio vs untreated control” value with E. coli ATCC 25922 [3] was “not”. Further, in the test on E. coli ATCC 25922 [4], the “metabolic activity (MTT) vs untreated control” value is reported as “did not affect the metabolic activity”.
